Consider 41 compounds from US12258355B2, “Probes for imaging huntingtin protein” (CHDI Foundation, Inc., priority 2014, dated 2025).

SMILES strings stand for the structures.

In the assay the target is T1, Q46 protein aggregates (Homo sapiens, UniProt P42858).
T1 construct: fused on or other part: GST at the N-terminus, cut off with thrombin before the test to start aggregation; The wells held aggregated Q46 without GST
T1 sequence (P42858 with tags, fused parts or gaps with the stated changes, form open): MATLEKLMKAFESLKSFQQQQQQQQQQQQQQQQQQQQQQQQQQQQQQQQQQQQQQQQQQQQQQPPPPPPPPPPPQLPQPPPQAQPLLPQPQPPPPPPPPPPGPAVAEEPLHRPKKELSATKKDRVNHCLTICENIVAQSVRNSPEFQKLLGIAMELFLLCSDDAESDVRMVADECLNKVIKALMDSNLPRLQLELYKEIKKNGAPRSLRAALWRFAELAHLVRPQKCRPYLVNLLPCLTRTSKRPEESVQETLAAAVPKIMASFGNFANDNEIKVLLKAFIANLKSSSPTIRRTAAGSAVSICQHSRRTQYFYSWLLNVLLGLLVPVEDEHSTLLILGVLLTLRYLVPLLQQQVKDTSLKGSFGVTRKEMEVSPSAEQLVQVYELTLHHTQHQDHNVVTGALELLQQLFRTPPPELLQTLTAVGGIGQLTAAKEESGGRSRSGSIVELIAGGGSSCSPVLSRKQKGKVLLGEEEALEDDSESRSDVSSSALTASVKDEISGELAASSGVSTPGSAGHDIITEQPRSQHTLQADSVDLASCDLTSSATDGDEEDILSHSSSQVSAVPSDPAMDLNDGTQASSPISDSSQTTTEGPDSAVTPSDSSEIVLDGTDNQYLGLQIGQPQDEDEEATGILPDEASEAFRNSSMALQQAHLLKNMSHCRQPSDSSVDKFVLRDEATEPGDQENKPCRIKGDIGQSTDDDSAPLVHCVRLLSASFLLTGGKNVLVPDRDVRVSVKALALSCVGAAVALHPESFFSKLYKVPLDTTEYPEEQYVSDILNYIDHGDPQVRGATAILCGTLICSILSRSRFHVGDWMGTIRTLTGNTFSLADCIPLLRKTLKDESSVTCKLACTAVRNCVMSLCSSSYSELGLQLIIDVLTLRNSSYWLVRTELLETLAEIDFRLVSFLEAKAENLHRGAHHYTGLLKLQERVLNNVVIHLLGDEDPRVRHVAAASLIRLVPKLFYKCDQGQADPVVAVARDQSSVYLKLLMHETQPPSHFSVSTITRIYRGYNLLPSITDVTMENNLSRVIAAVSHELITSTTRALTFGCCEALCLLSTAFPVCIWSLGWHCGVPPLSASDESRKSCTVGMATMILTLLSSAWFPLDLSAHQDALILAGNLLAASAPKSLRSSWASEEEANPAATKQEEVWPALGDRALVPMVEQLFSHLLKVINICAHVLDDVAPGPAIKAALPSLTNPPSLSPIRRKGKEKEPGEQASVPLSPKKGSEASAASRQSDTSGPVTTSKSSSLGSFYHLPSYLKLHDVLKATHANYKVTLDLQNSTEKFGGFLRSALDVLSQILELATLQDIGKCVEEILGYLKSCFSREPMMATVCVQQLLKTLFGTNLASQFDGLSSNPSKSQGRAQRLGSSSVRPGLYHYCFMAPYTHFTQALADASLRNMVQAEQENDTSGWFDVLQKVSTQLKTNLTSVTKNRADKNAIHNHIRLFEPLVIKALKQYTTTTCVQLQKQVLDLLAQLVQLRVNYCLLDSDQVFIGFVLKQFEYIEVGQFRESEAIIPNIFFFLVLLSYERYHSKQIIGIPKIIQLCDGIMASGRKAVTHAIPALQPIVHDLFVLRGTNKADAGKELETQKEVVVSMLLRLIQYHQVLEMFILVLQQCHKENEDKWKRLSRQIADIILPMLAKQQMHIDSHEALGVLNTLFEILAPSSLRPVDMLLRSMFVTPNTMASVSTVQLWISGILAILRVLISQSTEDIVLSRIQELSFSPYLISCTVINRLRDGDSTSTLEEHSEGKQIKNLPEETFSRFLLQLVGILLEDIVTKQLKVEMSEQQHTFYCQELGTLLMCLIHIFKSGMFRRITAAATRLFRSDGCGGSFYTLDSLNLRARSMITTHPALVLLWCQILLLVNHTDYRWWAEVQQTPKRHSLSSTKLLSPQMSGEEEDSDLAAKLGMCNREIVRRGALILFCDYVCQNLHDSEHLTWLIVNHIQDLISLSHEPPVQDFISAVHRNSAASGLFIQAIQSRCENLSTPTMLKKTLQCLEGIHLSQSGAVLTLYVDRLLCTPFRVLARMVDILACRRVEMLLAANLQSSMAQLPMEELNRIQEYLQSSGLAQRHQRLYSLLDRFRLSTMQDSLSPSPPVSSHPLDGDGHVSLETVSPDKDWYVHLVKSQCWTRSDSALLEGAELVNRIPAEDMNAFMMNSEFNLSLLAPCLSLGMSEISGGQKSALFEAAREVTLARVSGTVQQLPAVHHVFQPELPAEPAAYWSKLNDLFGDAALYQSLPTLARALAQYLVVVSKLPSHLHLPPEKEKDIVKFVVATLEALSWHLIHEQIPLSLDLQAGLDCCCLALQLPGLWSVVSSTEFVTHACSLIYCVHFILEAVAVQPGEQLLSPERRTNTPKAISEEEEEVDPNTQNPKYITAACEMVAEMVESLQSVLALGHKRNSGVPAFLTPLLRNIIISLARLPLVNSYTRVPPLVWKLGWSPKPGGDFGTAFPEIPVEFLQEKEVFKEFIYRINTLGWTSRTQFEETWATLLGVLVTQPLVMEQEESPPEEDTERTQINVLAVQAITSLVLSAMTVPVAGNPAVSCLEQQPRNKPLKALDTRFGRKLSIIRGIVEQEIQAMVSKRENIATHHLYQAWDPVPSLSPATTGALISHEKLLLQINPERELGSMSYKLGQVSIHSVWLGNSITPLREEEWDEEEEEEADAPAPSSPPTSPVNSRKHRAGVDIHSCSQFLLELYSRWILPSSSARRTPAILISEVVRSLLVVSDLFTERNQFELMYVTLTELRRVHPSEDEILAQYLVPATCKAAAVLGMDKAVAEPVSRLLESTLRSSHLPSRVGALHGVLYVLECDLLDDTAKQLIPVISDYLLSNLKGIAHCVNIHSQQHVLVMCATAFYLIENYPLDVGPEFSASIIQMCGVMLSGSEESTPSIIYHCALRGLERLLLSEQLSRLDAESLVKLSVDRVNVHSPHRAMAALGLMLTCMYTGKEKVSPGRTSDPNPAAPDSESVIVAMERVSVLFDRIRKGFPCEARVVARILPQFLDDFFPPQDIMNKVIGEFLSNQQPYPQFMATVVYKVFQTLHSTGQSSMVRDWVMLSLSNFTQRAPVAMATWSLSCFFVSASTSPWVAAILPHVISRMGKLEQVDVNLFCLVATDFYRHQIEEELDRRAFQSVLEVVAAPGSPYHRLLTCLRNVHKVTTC
Briefly: Q46 radioligand binding assay (RBA). The following applies: 10 nM ligand [3H3]MK-3328. As for the experimental part:
Q46 Radioligand Binding Assay
For radioligand binding assays (RBA) GST-Q46 protein was generated based on a previous publication (Scherzinger et al. Cell, Vol. 90, 549-558, Aug. 8, 1997). For experiments 33 μM GST-Q46 was incubated with 150 μg/mL thrombin in assay buffer (150 mM NaCl, 50 mM Tris pH 8.0) and 2 mM CaCl2 for 16 hours at 37° C. Aggregated Q46 was pelleted by centrifugation for 5 minutes at 13,000 rpm in a bench top centrifuge and re-dissolved in the same volume of assay buffer. Test compounds were prepared by titration in DMSO at 11 concentrations from 33 μM to 1 nM. For the RBA, Q46 protein aggregates and test compounds were pre-incubated in assay buffer for 20 minutes at room temperature, in 140 μL/well in a 96-well plate (pp, round bottom). Then, ligand was added in 10 μL/well and incubated for 60 minutes at 37° C. Final assay concentrations were 1 μM to 30 pM test compound, 5 μM Q46 protein (equivalent monomer concentration) and 10 nM ligand [^3H3]MK-3328 (Harrision et al., ACS Med. Chem. Lett., 2 (2011), pp 498-502). Samples were transferred onto GF/B filter plates and washed 2× with 200 μL PBS using a Filtermate Harvester. After drying filter plates for 1 hour at 37° C., the back of the plates were sealed with foil and 30 μL/well scintillation fluid (Packard MicroScint 40) added, incubated for 15 minutes in the dark and counted in a TopCount reader. For analysis, replicate data from independent assay plates were normalized towards 0% and 100% inhibition using control wells of vehicle (0% inhibition) and 3 μM unlabelled MK-3328 (100% inhibition). IC50 values were determined with a sigmoidal inhibition model with four variables (top, bottom, slope, IC50) in a global fit using the normalized replicate data.
Usually IC50 stands for the point on the concentration scale where inhibition reaches its midpoint. A low value points to inhibition by little substance. Consider `COc1ccc(COc2ccc3oc(-n4ccnc4)nc3c2)nc1` [2-(1H-imidazol-1-yl)-5-[(5-methoxypyridin-2-yl)methoxy]-1,3-benzoxazole], for which the IC50 was less than 100 nM. With `COc1cccc(C(=O)Nc2ccc3oc(-c4cccnc4)nc3c2)n1` [6-methoxy-N-[2-(pyridin-3-yl)-1,3-benzoxazol-5-yl]pyridine-2-carboxamide], the IC50 is less than 100 nM. `O=C(Nc1ccc2oc(-c3ccccc3)nc2c1)c1ccccc1` [N-(2-phenyl-1,3-benzoxazol-5-yl)benzamide]: the IC50 was less than 100 nM. Then `Brc1ccc(COc2ccc3oc(-c4cccnc4)nc3c2)nc1` [5-[(5-bromopyridin-2-yl)methoxy]-2-(pyridin-3-yl)-1,3-benzoxazole], with less than 100 nM. `COc1ccc(COc2ccc3oc(-c4ccc[n+]([O-])c4)nc3c2)nc1` [3-{5-[(5-methoxypyridin-2-yl)methoxy]-1,3-benzoxazol-2-yl}pyridin-1-ium-1-olate]: the IC50 was less than 100 nM. In turn, `c1cncc(COc2ccc3oc(-c4cccnc4)nc3c2)c1` [2-(pyridin-3-yl)-5-(pyridin-3-ylmethoxy)-1,3-benzoxazole] yielded an IC50 of less than 100 nM.

Compound `COc1ccc(COc2ccc3oc(-c4cccnc4)nc3c2)cc1` [5-[(4-methoxyphenyl)methoxy]-2-(pyridin-3-yl)-1,3-benzoxazole] gave a 50% inhibitory concentration (IC50) of less than 100 nM. Take `COc1ccc(COc2ccc3oc(-c4ccc(=O)[nH]c4)nc3c2)nc1` [5-{5-[(5-methoxypyridin-2-yl)methoxy]-1,3-benzoxazol-2-yl}-1,2-dihydropyridin-2-one]: the IC50 was less than 100 nM. On to `Cn1cc(COc2ccc3oc(-c4ccncc4C#N)cc3c2)cn1` [4-{5-[(1-methyl-1H-pyrazol-4-yl)methoxy]-1-benzofuran-2-yl}pyridine-3-carbonitrile], for which the IC50 was less than 100 nM. In turn, `COc1ccc(/C=C/C(=O)Nc2ccc3oc(-c4cccnc4)nc3c2)cc1` [(2E)-3-(4-methoxyphenyl)-N-[2-(pyridin-3-yl)-1,3-benzoxazol-5-yl]prop-2-enamide] displayed an IC50 of less than 100 nM. In turn, `COc1ccc(-c2ccc3oc(-c4cccnc4)nc3c2)cc1` [5-(4-methoxyphenyl)-2-(pyridin-3-yl)-1,3-benzoxazole] came in with a half-maximal inhibitory concentration (IC50) of less than 100 nM.

As to `CNC(=O)c1ccc(-c2nc3cc(OCc4ccc(O)cn4)ccc3o2)cn1` [5-{5-[(5-hydroxypyridin-2-yl)methoxy]-1,3-benzoxazol-2-yl}-N-methylpyridine-2-carboxamide], the IC50 is less than 100 nM. In turn, `COc1ccc(COc2ccc3oc(N4CCn5cncc5C4)nc3c2)nc1` [2-{5H,6H,7H,8H-imidazo[1,5-a]pyrazin-7-yl}-5-[(5-methoxypyridin-2-yl)methoxy]-1,3-benzoxazole] showed an IC50 of less than 100 nM. In turn, `COc1ccc(COc2cnc3oc(-c4cccnc4)nc3c2)cn1` [3-{6-[(6-methoxypyridin-3-yl)methoxy]-[1,3]oxazolo[5,4-b]pyridin-2-yl}pyridine] came in with an IC50 of less than 100 nM. On to `C(#Cc1cnc2oc(-c3cccnc3)nc2c1)c1cccnc1` [3-{6-[2-(pyridin-3-yl)ethynyl]-[1,3]oxazolo[5,4-b]pyridin-2-yl}pyridine], for which the 50% inhibitory concentration (IC50) is less than 100 nM.

`COc1cnc(COc2cnc3oc(-c4cnn(C)c4)nc3c2)cn1` [2-methoxy-5-({[2-(1-methyl-1H-pyrazol-4-yl)-[1,3]oxazolo[5,4-b]pyridin-6-yl]oxy}methyl)pyrazine] displayed a half-inhibitory concentration (IC50) of less than 100 nM. With `N#Cc1cnccc1-c1cc2cc(OCC3=CSC4=NCCN34)ccc2o1` [4-(5-{5H,6H-imidazo[2,1-b][1,3]thiazol-3-ylmethoxy}-1-benzofuran-2-yl)pyridine-3-carbonitrile], the IC50 is less than 100 nM. Compound `COc1ccc(COc2ccc3oc([C@@H]4Cc5ccccc5O4)nc3c2)nc1` [2-[(2S)-2,3-dihydro-1-benzofuran-2-yl]-5-[(5-methoxypyridin-2-yl)methoxy]-1,3-benzoxazole] showed an IC50 of less than 100 nM. `OC(Cc1ccc2oc(-c3cccnc3)nc2c1)c1ccccn1` (centres unmarked) [1-(pyridin-2-yl)-2-[2-(pyridin-3-yl)-1,3-benzoxazol-5-yl]ethan-1-ol] returned an IC50 of 100 to 500 nM. Then `COc1cnc(COc2cnc3oc(-c4cccnc4)nc3c2)nc1` [5-methoxy-2-({[2-(pyridin-3-yl)-[1,3]oxazolo[5,4-b]pyridin-6-yl]oxy}methyl)pyrimidine], with less than 100 nM; and `CN(C)CCCOc1ccc(COc2ccc3oc(-c4cccnc4)nc3c2)cc1` [dimethyl({3-[4-({[2-(pyridin-3-yl)-1,3-benzoxazol-5-yl]oxy}methyl)phenoxy]propyl})amine], with less than 100 nM; and `O=C(Nc1ccc2oc(-c3cccnc3)nc2c1)C1Cc2ccccc2O1` (centres unmarked) [N-[2-(pyridin-3-yl)-1,3-benzoxazol-5-yl]-2,3-dihydro-1-benzofuran-2-carboxamide], with less than 100 nM. `O=C(Nc1ccc2oc(-c3cccnc3)nc2c1)c1ccc2ccccc2n1` [N-[2-(pyridin-3-yl)-1,3-benzoxazol-5-yl]quinoline-2-carboxamide] displayed an IC50 of less than 100 nM.

The compound `O=C(Nc1ccc2oc(-c3cccnc3)nc2c1)c1ccc(COc2ccccc2)cc1` [4-(phenoxymethyl)-N-[2-(pyridin-3-yl)-1,3-benzoxazol-5-yl]benzamide] showed an IC50 of less than 100 nM. For the compound `COc1ccc(COc2ccc3oc(-c4cncs4)nc3c2)nc1` [5-[(5-methoxypyridin-2-yl)methoxy]-2-(1,3-thiazol-5-yl)-1,3-benzoxazole], the IC50 was less than 100 nM. Turning to `CSc1ccc(C(=O)Nc2ccc3oc(-c4cccnc4)nc3c2)cc1` [4-(methylsulfanyl)-N-[2-(pyridin-3-yl)-1,3-benzoxazol-5-yl]benzamide], the IC50 was less than 100 nM.

The compound `O=C(Nc1ccc2oc(-c3cccnc3)nc2c1)c1cccc(Oc2ccccc2)c1` [3-phenoxy-N-[2-(pyridin-3-yl)-1,3-benzoxazol-5-yl]benzamide] gave an IC50 of less than 100 nM.

For the compound `CC(=O)Oc1ccc(C(=O)Nc2ccc3oc(-c4ccc(Cl)cc4)nc3c2)cc1` [4-{[2-(4-chlorophenyl)-1,3-benzoxazol-5-yl]carbamoyl}phenyl acetate], the IC50 is less than 100 nM. Take `COc1ccnc(COc2cnc3oc(-c4cccnc4)nc3c2)c1` [4-methoxy-2-({[2-(pyridin-3-yl)-[1,3]oxazolo[5,4-b]pyridin-6-yl]oxy}methyl)pyridine]: the IC50 was less than 100 nM.

Compound `c1cncc(COc2ccc3nc(-c4cccnc4)oc3c2)c1` [2-(pyridin-3-yl)-6-(pyridin-3-ylmethoxy)-1,3-benzoxazole] registered an IC50 of less than 100 nM. Regarding `COc1cnc(COc2ccc3oc(-c4cccnc4)nc3c2)cn1` [5-[(5-methoxypyrazin-2-yl)methoxy]-2-(pyridin-3-yl)-1,3-benzoxazole], the IC50 was less than 100 nM. `N#Cc1cnccc1-c1cc2cc(Oc3cccnc3)ccc2o1` [4-[5-(pyridin-3-yloxy)-1-benzofuran-2-yl]pyridine-3-carbonitrile] came in with an IC50 of less than 100 nM. Compound `COc1ccc(COc2ccc3oc(N4Cc5cccnc5C4)nc3c2)nc1` [5-[(5-methoxypyridin-2-yl)methoxy]-2-{5H,6H,7H-pyrrolo[3,4-b]pyridin-6-yl}-1,3-benzoxazole] had an IC50 of less than 100 nM.

The compound `COc1ccc(COc2ccc3oc(-c4cccc(Oc5ccccc5)c4)nc3c2)nc1` [5-[(5-methoxypyridin-2-yl)methoxy]-2-(3-phenoxyphenyl)-1,3-benzoxazole] had an IC50 of less than 100 nM. Then `COc1ccc(Nc2ccc3oc(-c4cccnc4)nc3c2)cc1` [N-(4-methoxyphenyl)-2-(pyridin-3-yl)-1,3-benzoxazol-5-amine], with 100 to 500 nM; and `COc1ccc(COc2ccc3oc(-c4ccnc(C)c4)nc3c2)nc1` [5-[(5-methoxypyridin-2-yl)methoxy]-2-(2-methylpyridin-4-yl)-1,3-benzoxazole], with less than 100 nM.

`COc1ccc(CNc2ccc3oc(-c4cccnc4)nc3c2)cc1` [N-[(4-methoxyphenyl)methyl]-2-(pyridin-3-yl)-1,3-benzoxazol-5-amine] registered an IC50 of less than 100 nM. In turn, `COc1ccc(COc2ccc3oc(-c4ccncn4)nc3c2)nc1` [5-[(5-methoxypyridin-2-yl)methoxy]-2-(pyrimidin-4-yl)-1,3-benzoxazole] showed an IC50 of less than 100 nM. The compound `CNCc1cccc(-c2nc3cc(OCc4ccc(OC)cn4)ccc3o2)c1` [[(3-{5-[(5-methoxypyridin-2-yl)methoxy]-1,3-benzoxazol-2-yl}phenyl)methyl](methyl)amine] displayed an IC50 of less than 100 nM. `COc1cnc(N2CCN(c3ccc4oc(-c5cccnc5)nc4c3)CC2)nc1` [5-[4-(5-methoxypyrimidin-2-yl)piperazin-1-yl]-2-(pyridin-3-yl)-1,3-benzoxazole]: the 50% inhibitory concentration (IC50) is less than 100 nM. `COc1ccc(COc2ccc3oc(-c4cccc(CN(C)C)c4)nc3c2)nc1` [[(3-{5-[(5-methoxypyridin-2-yl)methoxy]-1,3-benzoxazol-2-yl}phenyl)methyl]dimethylamine] gave an IC50 of less than 100 nM.
